Measurements reported in BigSolDB 2.1.

Nc1ccc(S(=O)(=O)Nc2ncccn2)cc1
solubility (mole fraction)
Conditions	278.15 K	283.15 K	288.15 K	293.15 K	298.15 K	303.15 K	308.15 K	313.15 K
in NMP	0.0118	0.0137	0.0153	0.018	0.0194	0.0224	0.132	0.137
in water	1.89e-06	2.51e-06	3.18e-06	3.96e-06	5.13e-06	6.32e-06	8.03e-06	9.98e-06
